Series [1] addresses Recombinant human CD38 (Homo sapiens (Human), UniProt P28907). Briefly: Human CD38 hydrolase assay (fluorescence, ε-NAD substrate). The conditions noted are these: recombinant human CD38 0.8 nM, 4 μM ε-NAD, 30 min preincubation at 25° C., pH 7.4. The class given is biochemical. How it is done: The ability of test compounds to inhibit human CD38 hydrolase activity was measured in a fluorescence-based assay using non-physiological NAD^+ substrate analogue 1,N^6-etheno NAD^+ (ε-NAD). Recombinant human CD38 (0.8 nM) was preincubated with test compounds in 384-well black microplates for 30 min at 25° C. in PBS (—Ca^2+/Mg^2+) containing 0.005% BSA (pH 7.4). CD38 hydrolase activity was initiated by addition of 4 μM ε-NAD, which yields the fluorescent product 1,N^6-etheno ADP-ribose. Formation of fluorescent product was followed using ClarioStar Plus (BMG) microplate reader by reading fluorescence (excitation λ=300 nm; emission λ=410 nm) at two time points, one immediately after substrate addition (t=0) and one at 10 min (t=10).
Data was analysed by subtracting the values detected at t=0 from t=10 to correct for variation in baseline fluorescence. Fluorescence values were converted to percent inhibition using the average of high signal (CD38 and ε-NAD) and low signal (CD38 and ε-NAD in the presence of a tool CD38 inhibitor) control wells. IC50 values were determined from a 10-point, half log concentration response curve with a four-parameter logistic equation.

Series [2] in a line: Tissue binding assay, plasma (equilibrium dialysis). Type of series: in vitro ADME. To be noted: dialysis 4 hours at 37° C. As to the method: [The source words this procedure for another target and reports this target under the same test.] Buffer preparation. A basic solution was prepared by dissolving 14.2 g/L Na2HPO4 and 8.77 g/L NaCl in deionized H2O. An acidic solution was prepared by dissolving 15.6 g/L NaH2PO4·2H2O and 8.77 g/L NaCl in deionized H2O. Using the acidic solution, the basic solution was then titrated to pH 7.4±0.1 and stored at 4° C. for up to 1 month. The stop solution was 100% CH3CN containing 200 ng/mL tolbutamide, 200 ng/mL labetalol and 50 ng/mL metformin.
Test method. Dialysis membrane strips were soaked in ultra-pure water at room temperature for ˜1 hour. Each membrane strip containing 2 membranes was separated and soaked in 20:80 EtOH/H2O (v/v) for ˜20 min, after which they were ready for use or were stored in the solution at 2-8° C. for up to 1 month. Prior to the experiment, the membrane was rinsed and soaked for 20 min in ultra-pure water. On the day of experiment, brain homogenate was thawed in a water bath at room temperature and incubated at 37° C. for 10 min before use. Test and control compounds were dissolved in DMSO to achieve 10 mM stock solutions. DMSO working solutions were prepared at 400 μM by diluting 10 μL of stock solution. To prepare the time zero (t=0) samples to be used for recovery determination, 50 μL aliquots of loading matrix were transferred in triplicate to the sample collection plate. The samples were immediately matched with opposite blank buffer to obtain a final volume of 100 μL of 1:1 matrix/dialysis buffer (v/v) in each well. 500 μL of stop solution were added to these t=0 samples. They were then stored at 2-8° C. pending further processes along with other post-dialysis samples. To load the dialysis device, an aliquot of 150 μL of the loading matrix was transferred to the donor side of each dialysis well in triplicate, and 150 μL of the dialysis buffer was loaded to the receiver side of the well. The dialysis plate was placed in a humidified incubator at 37° C. with 5% CO2 on a shaking platform that rotated slowly (about 100 rpm) for 4 hours. At the end of the dialysis, aliquots of 50 μL of samples were taken from both the buffer side and the matrix side of the dialysis device. These samples were transferred into new 96-well plates. Each sample was mixed with an equal volume of opposite blank matrix (buffer or matrix) to reach a final volume of 100 μL of 1:1 matrix/dialysis buffer (v/v) in each well. All samples were further processed by adding 500 μL of stop solution containing internal standards. The mixture was vortexed and centrifuged at 4000 rpm for about 20 min. An aliquot of 100 μL of supernatant of all the samples was then removed for LC-MS/MS analysis. The single blank samples were prepared by transferring 50 μL of blank matrix to a 96-well plate and adding 50 μL of blank PBS buffer to each well. Then the matrix-matched samples were further processed by adding 500 μL of stop solution containing internal standards, following the same sample processing method as the dialysis samples.
Data analysis. The % undiluted unbound, % undiluted bound and % recovery were calculated using the following equations:
% Undiluted Unbound=100*1/D/((1/(F/T)−1)+1/D)
% Undiluted Bound=100−% Undiluted Unbound
where F is the analyte concentration or peak area ratio of analyte/internal standard on the buffer (receiver) side of the membrane; T is the analyte concentration or peak area ratio of analyte/internal standard on the matrix (donor) side of the membrane; To is the analyte concentration or the peak area ratio of analyte/internal standard in the loading matrix sample at time zero; and D is the dilution factor determined as 4 in this assay.

Chain of Recombinant human CD38 (P28907 whole entry): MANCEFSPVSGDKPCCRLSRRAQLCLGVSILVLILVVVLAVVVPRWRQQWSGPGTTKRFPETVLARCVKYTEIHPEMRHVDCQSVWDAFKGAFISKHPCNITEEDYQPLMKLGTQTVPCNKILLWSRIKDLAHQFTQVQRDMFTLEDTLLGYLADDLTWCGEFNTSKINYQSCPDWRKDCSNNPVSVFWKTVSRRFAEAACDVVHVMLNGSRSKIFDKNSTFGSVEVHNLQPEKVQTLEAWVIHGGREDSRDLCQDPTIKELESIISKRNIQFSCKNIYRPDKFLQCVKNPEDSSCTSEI

For the compound `Cc1cc(C(=O)N[C@H]2CC[C@H](NCC(F)(F)F)CC2)nc(-n2ccnc2)n1` [Example 1, 2-(1H-imidazol-1-yl)-6-methyl-N-((1r,4r)-4-((2,2,2-trifluoroethyl)amino)cyclohexyl)pyrimidine-4-carboxamide], in series [1], the IC50 was at most 0.04 µM. Moreover, the “Mouse plasma (% unbound)” value in series [2] is 13.0 % unbound.

Take `O=C(N[C@H]1CC[C@H](NCC(F)F)CC1)c1cc(C2CC2)nc(-n2ccnc2)n1` [Example 3, 6-cyclopropyl-N-((1r,4r)-4-((2,2-difluoroethyl)amino)cyclohexyl)-2-(1H-imidazol-1-yl)pyrimidine-4-carboxamide]: the IC50 in series [1] is at most 0.04 µM. Further, the “Mouse plasma (% unbound)” value in series [2] stood at 7.4 % unbound.

Take `Cc1cc(C(=O)N[C@H]2CC[C@H](NC(C)(C)C(F)(F)F)CC2)nc(-n2ccnc2)n1` [Example 21, 2-(1H-imidazol-1-yl)-6-methyl-N-((1r,4r)-4-((1,1,1-trifluoro-2-methylpropan-2-yl)amino)cyclohexyl)pyrimidine-4-carboxamide]: the IC50 in series [1] is at most 0.1 µM. Moreover, the “Mouse plasma (% unbound)” value in series [2] worked out at 4.1 % unbound.

Consider `Cc1cc(C(=O)N[C@H]2CC[C@H](N3CCC(F)(F)C3)CC2)nc(-n2ccnc2)n1` [Example 10, N-((1r,4r)-4-(3,3-difluoropyrrolidin-1-yl)cyclohexyl)-2-(1H-imidazol-1-yl)-6-methyl-pyrimidine-4-carboxamide], for which, in series [1], the IC50 was at most 0.04 µM. Also, the “Mouse plasma (% unbound)” value in series [2] worked out at 10.6 % unbound.

For the compound `Cc1cc(C(=O)N[C@H]2CC[C@H](NCC(F)F)CC2)nc(-n2ccnc2)n1` [Example 2, N-((1r,4r)-4-((2,2-difluoroethyl)amino)cyclohexyl)-2-(1H-imidazol-1-yl)-6-methyl-pyrimidine-4-carboxamide], the IC50 in series [1] was at most 0.04 µM. In addition, the “Mouse plasma (% unbound)” value in series [2] is listed as 22.7 % unbound.

As a reminder, the IC50 is the concentration needed to halve the response being measured.

For the origin of these results see patent US20250019369A1, “N-(4-aminocyclohexyl)pyrimidine-4-carboxamide derivatives as CD38 inhibitors” (Cerevance, Inc., priority 2021, published 2025).
